In PubChem BioAssay AID1645862 (Buhrlage Lab, Dana-Farber Cancer Institute and Novartis …, 2021):
Calls of active or inactive are those of the source. The rule behind the calls is not given here.

The compounds below were run against Ubiquitin carboxyl-terminal hydrolase 8 (Homo sapiens) (UniProt P40818) (assay: Ubiquitin-specific protease 8 inhibitors, concentration-effect, biochemical, validation of initial actives (AID 1645862;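 note: potency reflects inhibition of USP8 cleavage of a ubiquitin rhodamine substrate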)). Details: recombinant USP8 deubiquitinase activity assay.
Ubiquitin carboxyl-terminal hydrolase 8 (Homo sapiens), sequence (P40818 whole entry, looked up): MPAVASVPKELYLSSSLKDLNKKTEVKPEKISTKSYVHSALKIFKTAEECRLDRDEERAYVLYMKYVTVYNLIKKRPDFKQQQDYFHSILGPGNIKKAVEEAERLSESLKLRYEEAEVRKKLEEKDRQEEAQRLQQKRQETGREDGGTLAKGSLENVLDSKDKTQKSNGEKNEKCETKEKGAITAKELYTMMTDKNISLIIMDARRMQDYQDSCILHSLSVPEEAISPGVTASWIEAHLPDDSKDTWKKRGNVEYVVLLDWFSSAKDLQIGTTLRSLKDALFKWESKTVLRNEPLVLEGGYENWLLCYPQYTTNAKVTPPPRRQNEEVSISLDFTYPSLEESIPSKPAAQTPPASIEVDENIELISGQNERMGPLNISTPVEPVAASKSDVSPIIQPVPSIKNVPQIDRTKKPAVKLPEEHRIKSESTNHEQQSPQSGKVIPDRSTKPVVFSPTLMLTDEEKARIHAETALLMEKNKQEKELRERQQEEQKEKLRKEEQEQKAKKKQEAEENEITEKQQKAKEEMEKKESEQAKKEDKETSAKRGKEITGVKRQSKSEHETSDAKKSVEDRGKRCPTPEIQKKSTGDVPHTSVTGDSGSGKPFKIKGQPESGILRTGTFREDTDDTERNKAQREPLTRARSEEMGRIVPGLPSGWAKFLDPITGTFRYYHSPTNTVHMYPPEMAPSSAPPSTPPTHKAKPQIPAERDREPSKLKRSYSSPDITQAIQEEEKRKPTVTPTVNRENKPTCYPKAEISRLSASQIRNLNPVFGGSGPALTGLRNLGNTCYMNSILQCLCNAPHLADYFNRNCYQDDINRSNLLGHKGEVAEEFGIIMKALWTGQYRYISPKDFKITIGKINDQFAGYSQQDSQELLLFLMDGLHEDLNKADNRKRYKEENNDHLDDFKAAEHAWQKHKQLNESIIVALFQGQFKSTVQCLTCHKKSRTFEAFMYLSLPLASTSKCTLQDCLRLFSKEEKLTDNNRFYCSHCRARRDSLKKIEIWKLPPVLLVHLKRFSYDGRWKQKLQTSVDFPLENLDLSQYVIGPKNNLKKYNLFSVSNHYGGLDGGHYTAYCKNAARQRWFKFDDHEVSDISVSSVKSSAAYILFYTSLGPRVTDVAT

Row | IC50 | Compound
1 | > 40 µM (inactive) | CCc1cc(=O)oc2c(C)c(OCC(=O)NCc3ccccn3)ccc12
2 | > 40 µM (inactive) | c1ccc2sc(-c3csc(-c4ccc5c(c4)OCCO5)n3)nc2c1
3 | > 40 µM (inactive) | Cc1ccccc1NC(=O)Cc1csc2nc(-c3ccc(F)cc3)cn12
4 | > 40 µM (inactive) | Cc1cc(OCC(=O)Nc2ccc3c(c2)NC(=O)CO3)ccc1Cl
5 | > 40 µM (inactive) | CC1=C(C)C(c2c(-c3ccc(C)cc3)[nH]c3ccccc23)N(C(C)(C)C)C1=O (stereo unspecified)
6 | > 40 µM (inactive) | Cc1ccc(N2CC(c3nc4ccccc4n3CCOc3cccc(C)c3)CC2=O)cc1 (stereo unspecified)
7 | > 40 µM (inactive) | Cc1ccc(N2CC(c3nnc(NC(=O)CCc4ccccc4)s3)CC2=O)cc1 (stereo unspecified)
8 | > 40 µM (inactive) | COc1ccc(S(=O)(=O)N2CCc3ccccc32)cc1C(=O)Nc1ccc2c(c1)NC(=O)C(C)O2 (stereo unspecified)
9 | > 40 µM (inactive) | COc1cccc(Cn2cnc3c(NS(=O)(=O)c4ccc(Cl)cc4)c(C)c(C)cc32)c1
10 | > 40 µM (inactive) | Cc1ccc(S(=O)(=O)Nc2nc(-c3ccc4c(c3)NC(=O)C(C)O4)c(C)s2)cc1 (stereo unspecified)
11 | > 40 µM (inactive) | COc1ccc(COc2ccc3c(C)c(CC(=O)N4CC[C@@]5(O)CCCC[C@H]5C4)c(=O)oc3c2)cc1
12 | 7.16 µM | Cc1ccc(-n2cc(-c3noc(C(=O)Nc4ccc(F)cc4C)n3)nn2)cc1

Further lines, the compound ahead of its results:

Row | Compound | IC50
13 | COc1ccc(NC(=O)Cn2c(=O)n(CCCC(=O)NCCc3ccc(OC)c(OC)c3)c(=O)c3ccccc32)cc1Cl | > 40 µM (inactive)
14 | COc1ccc(-c2cc3n(c(=N)c2C#N)CCc2cc4c(cc2-3)OCO4)cc1O | > 40 µM (inactive)
15 | Nc1c(-c2nc(-c3ccccc3Cl)no2)nnn1-c1ccc(Cl)cc1 | 4.79 µM
16 | COc1ccccc1NC(=O)c1nc(-c2cn(-c3cccc(F)c3)nn2)no1 | > 40 µM (inactive)
17 | O=C(Cn1c(=O)n(-c2ccccc2)c(=O)c2ccc(C(=O)NCc3ccc4c(c3)OCO4)cc21)NCCC1=CCCCC1 | > 40 µM (inactive)
18 | Cn1nc(C(=O)N2CCC(c3ccccc3)C2)c2c1-c1ccsc1CC2 (stereo unspecified) | 38.4 µM
19 | Cc1c(C)n(-c2ccccc2)c2ncn(CC(=O)NCc3cccc(F)c3)c(=O)c12 | > 40 µM (inactive)
20 | Cc1nn(-c2ccccc2)c2c1N=C1C(Cl)=CC(Cl)=CN1C21C(=O)Nc2ccccc21 (stereo unspecified) | > 40 µM (inactive)
21 | O=C(Nc1ccc(F)cc1)Nc1ccccc1OCc1cc(=O)n2ccccc2n1 | > 40 µM (inactive)
22 | COC(=O)c1ccccc1NC(=O)CSc1nnc(CNc2ccc(F)cc2)n1CC1CCCO1 (stereo unspecified) | > 40 µM (inactive)
23 | O=C(Nc1cccc(Br)c1)c1cc(-c2cccnc2)n[nH]1 | 33.6 µM
24 | CCOC(=O)c1cc2c(ccn2C)n1CC(=O)NC1CC1 | > 40 µM (inactive)
25 | CN1c2ccccc2C(=O)NC12CCN(C(=O)NCc1ccccc1)CC2 | > 40 µM (inactive)
26 | COc1cc(CC(=O)Nc2ccccc2N2CCOCC2)cc(OC)c1OC | > 40 µM (inactive)
27 | COc1cccc(C(=O)Nc2ccc(SC(C)C(=O)Nc3ccc(C(N)=O)cc3)cc2)c1 (stereo unspecified) | > 40 µM (inactive)
28 | COc1ccc([C@H]2Oc3cc(OC)cc(O)c3C(=O)[C@@H]2[C@@H]2C(=O)c3c(O)cc(O)cc3O[C@H]2c2ccc(OC)cc2)cc1 | > 40 µM (inactive)
29 | Cc1cccc(Cl)c1NC(=O)Nc1ccc(NC(=O)c2ccccc2O)cc1 | > 40 µM (inactive)
30 | O=C(CCCCn1c(=O)[nH]c2ccccc2c1=O)Nc1cccc(Cl)c1 | > 40 µM (inactive)
31 | CCCCCCCCC/C=C/C(=O)CCc1c(O)c(C=O)c2c(c1O)C(=O)OC2O (stereo unspecified) | 0.514 µM
32 | O=C(Nc1ccc2c(c1)OCCO2)C1CCC(Cn2cnc3ccccc3c2=O)CC1 (stereo unspecified) | > 40 µM (inactive)
33 | COc1ccc(NC(=O)CNC(=O)c2ccc3nc(-n4cccc4)sc3c2)cc1 | > 40 µM (inactive)
34 | O=C(Oc1ccc2cc(Br)ccc2c1)c1ccncc1 | > 40 µM (inactive)
35 | CCC(C(=O)C(C)C(O)C(C)CCc1ccc(C)c(O)c1C(=O)O)C1OC(CC)(C2CCC(O)(CC)C(C)O2)CC1C (stereo unspecified) | > 40 µM (inactive)
36 | COc1ccc(Sc2nc3ccccc3n3cnnc23)cc1 | 32.7 µM
